According to PubChem BioAssay (NCI):
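GI50: concentration for 50% inhibition of growth. The concentration for full growth arrest is given as TGI.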

Key:
Experiment in all cases: NCI tumour cell line growth inhibition, 384-well format
SNB-75 CNS = test system: SNB-75 CNS
NCI-H460 NSCLC = test system: NCI-H460 NSCLC
HT29 colon = test system: HT29 colon
HOP-92 NSCLC = test system: HOP-92 NSCLC
A498 renal = test system: A498 renal
HS 578T breast = test system: HS 578T breast
UO-31 renal = test system: UO-31 renal
UACC-257 melanoma = test system: UACC-257 melanoma
MDA-MB-231 breast = test system: MDA-MB-231 breast
NCI-H322M lung = test system: NCI-H322M lung
PC-3 prostate = test system: PC-3 prostate
SK-MEL-28 melanoma = test system: SK-MEL-28 melanoma
A549 NSCLC = test system: A549 NSCLC
SK-OV-3 ovarian = test system: SK-OV-3 ovarian
SF-539 CNS = test system: SF-539 CNS
DU-145 prostate = test system: DU-145 prostate
MDA-MB-435 melanoma = test system: MDA-MB-435 melanoma
MOLT-4 leukemia = test system: MOLT-4 leukemia
M14 melanoma = test system: M14 melanoma
T-47D breast = test system: T-47D breast
CAKI-1 renal = test system: CAKI-1 renal
NCI-H522 lung = test system: NCI-H522 lung
SW-620 colon = test system: SW-620 colon
786-0 renal = test system: 786-0 renal
SNB-19 CNS = test system: SNB-19 CNS
K-562 leukemia = test system: K-562 leukemia
MCF7 breast = test system: MCF7 breast
SR leukemia = test system: SR leukemia
MDA-MB-468 breast = test system: MDA-MB-468 breast
EKVX NSCLC = test system: EKVX NSCLC
BT-549 breast = test system: BT-549 breast
NCI-H23 lung = test system: NCI-H23 lung
UACC-62 melanoma = test system: UACC-62 melanoma
OVCAR-5 ovarian = test system: OVCAR-5 ovarian
OVCAR-3 ovarian = test system: OVCAR-3 ovarian
TK-10 renal = test system: TK-10 renal
U251 glioblastoma = test system: U251 glioblastoma
HCT-15 colon = test system: HCT-15 colon
COLO 205 colon = test system: COLO 205 colon
SN12C renal = test system: SN12C renal
SK-MEL-2 melanoma = test system: SK-MEL-2 melanoma
IGROV1 ovarian = test system: IGROV1 ovarian
SK-MEL-5 melanoma = test system: SK-MEL-5 melanoma
MALME-3M melanoma = test system: MALME-3M melanoma
HL-60(TB) leukemia = test system: HL-60(TB) leukemia
HOP-62 NSCLC = test system: HOP-62 NSCLC
OVCAR-4 ovarian = test system: OVCAR-4 ovarian
KM12 colon = test system: KM12 colon
SF-295 CNS = test system: SF-295 CNS
RXF 393 renal = test system: RXF 393 renal
ACHN renal = test system: ACHN renal
OVCAR-8 ovarian = test system: OVCAR-8 ovarian
SF-268 CNS = test system: SF-268 CNS
NCI-H226 lung = test system: NCI-H226 lung
HCT-116 colon = test system: HCT-116 colon

## CC(C)(C)C[C@H]1NC(C(=O)NCC[C@H](O)CO)[C@H](c2cccc(Cl)c2)[C@@]12C(=O)Nc1cc(Cl)c(F)cc12 (stereo not given in full)
SNB-75 CNS
  GI50: 10.9 µM
  TGI: 22.9 µM
NCI-H460 NSCLC
  GI50: 14.6 µM
  TGI: 27.9 µM
HT29 colon
  GI50: 15.8 µM
  TGI: 29.4 µM
HOP-92 NSCLC
  GI50: 14.7 µM
  TGI: 27.8 µM
A498 renal
  GI50: 1.12 µM
  TGI: 11.7 µM
HS 578T breast
  GI50: 6.45 µM
  TGI: 20.4 µM
UO-31 renal
  GI50: 4.29 µM
  TGI: 15.9 µM
UACC-257 melanoma
  GI50: 1.76 µM
  TGI: 5.36 µM
MDA-MB-231 breast
  GI50: 16.2 µM
  TGI: 29.8 µM
NCI-H322M lung
  GI50: 17.5 µM
  TGI: 31.4 µM
PC-3 prostate
  GI50: 13.1 µM
  TGI: 25.9 µM
SK-MEL-28 melanoma
  GI50: 16.7 µM
  TGI: 30.4 µM
A549 NSCLC
  GI50: 2.94 µM
  TGI: 14.1 µM
SK-OV-3 ovarian
  GI50: 13.9 µM
  TGI: 27.1 µM
SF-539 CNS
  GI50: 13.4 µM
  TGI: 26.3 µM
DU-145 prostate
  GI50: 15.8 µM
  TGI: 29.4 µM
MDA-MB-435 melanoma
  GI50: 14.6 µM
  TGI: 27.8 µM
MOLT-4 leukemia
  GI50: 0.181 µM
  TGI: 0.341 µM
M14 melanoma
  GI50: 10.3 µM
  TGI: 22.1 µM
T-47D breast
  GI50: 11.7 µM
  TGI: 24 µM
CAKI-1 renal
  GI50: 0.605 µM
  TGI: 11.7 µM
NCI-H522 lung
  GI50: 12.8 µM
  TGI: 25.5 µM
SW-620 colon
  GI50: 16.8 µM
  TGI: 30.6 µM
786-0 renal
  GI50: 15.6 µM
  TGI: 29 µM
SNB-19 CNS
  GI50: 15.8 µM
  TGI: 29.4 µM
K-562 leukemia
  GI50: 13.7 µM
  TGI: 27 µM
MCF7 breast
  GI50: 0.243 µM
  TGI: 1.77 µM
SR leukemia
  GI50: 0.2 µM
  TGI: 0.394 µM
MDA-MB-468 breast
  GI50: 3.31 µM
  TGI: 16.1 µM
EKVX NSCLC
  GI50: 12.5 µM
  TGI: 25 µM
BT-549 breast
  GI50: 15.1 µM
  TGI: 28.5 µM
NCI-H23 lung
  GI50: 15 µM
  TGI: 28.3 µM
UACC-62 melanoma
  GI50: 0.591 µM
  TGI: 11.1 µM
OVCAR-5 ovarian
  GI50: 15.9 µM
  TGI: 29.5 µM
OVCAR-3 ovarian
  GI50: 13.7 µM
  TGI: 26.7 µM
TK-10 renal
  GI50: 14.6 µM
  TGI: 28.2 µM
U251 glioblastoma
  GI50: 14.4 µM
  TGI: 27.6 µM
HCT-15 colon
  GI50: 17.4 µM
  TGI: 31.5 µM
COLO 205 colon
  GI50: 15.8 µM
  TGI: 29.3 µM
SN12C renal
  GI50: 17.1 µM
  TGI: 30.9 µM
SK-MEL-2 melanoma
  GI50: 14.6 µM
  TGI: 27.7 µM
IGROV1 ovarian
  GI50: 6.37 µM
  TGI: 20.2 µM
SK-MEL-5 melanoma
  GI50: 2.79 µM
  TGI: 16.4 µM
MALME-3M melanoma
  GI50: 0.582 µM
  TGI: 14.7 µM
HL-60(TB) leukemia
  GI50: 4.2 µM
  TGI: 16.5 µM
HOP-62 NSCLC
  GI50: 16.5 µM
  TGI: 30.2 µM
OVCAR-4 ovarian
  GI50: 11.9 µM
  TGI: 24.3 µM
KM12 colon
  GI50: 1.6 µM
  TGI: 12.8 µM
SF-295 CNS
  GI50: 12.9 µM
  TGI: 25.6 µM
RXF 393 renal
  GI50: 2.38 µM
  TGI: 15.3 µM
ACHN renal
  GI50: 1.36 µM
  TGI: 10.6 µM
OVCAR-8 ovarian
  GI50: 16.4 µM
  TGI: 30.1 µM
SF-268 CNS
  GI50: 16 µM
  TGI: 29.6 µM
NCI-H226 lung
  GI50: 0.515 µM
  TGI: 2.17 µM
HCT-116 colon
  GI50: 0.962 µM
  TGI: 13.8 µM
